According to the supplement of paper PMC10307832:

Columns and labels:
Assay in all cases: relative viability (nuclei count vs DMSO), 5 days (fraction); higher = more cells survive
[1] = system: 201T
In short: (§1)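 Lung cancer cell lines were seeded in 1536-well plates and dosed by pin tool the next day, with either a single drug or a fixed anchor-drug dose combined with five library-drug doses (not always all listed) spaced in √10 steps. Five days later, one step fixed the cells and stained their nuclei (final 0.05% Triton X-100, 1% formaldehyde, 1 ug/ml Hoechst), and nuclei were counted on 4× images. Relative viability is the nuclei count in treated wells divided by the count in vehicle wells, and each value is the median of duplicate plates.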

[2] = system: A-427
In short: as §1

[3] = system: BEN
In short: as §1

[4] = system: COR-L23
In short: as §1

[5] = system: EKVX
In short: as §1

[6] = system: EMC-BAC-2
In short: as §1

[7] = system: EPLC-272H
In short: as §1

[8] = system: HCC-44
In short: as §1

[9] = system: HCC-827
In short: as §1

[10] = system: LCLC-103H
In short: as §1

[11] = system: LK-2
In short: as §1

[12] = system: LXF-289
In short: as §1

[13] = system: NCI-H1650
In short: as §1

[14] = system: NCI-H1651
In short: as §1

[15] = system: NCI-H1793
In short: as §1

[16] = system: NCI-H1915
In short: as §1

[17] = system: NCI-H2087
In short: as §1

[18] = system: NCI-H2126
In short: as §1

[19] = system: NCI-H2347
In short: as §1

[20] = system: NCI-H358
In short: as §1

[21] = system: NCI-H460
In short: as §1

[22] = system: NCI-H596
In short: as §1

[23] = system: SW 1573
In short: as §1

Compound: O=C(O)CCCCC(CCSCc1ccccc1)SCc1ccccc1 (centres undefined) [CPI-613] + O=C(c1cc(Cc2n[nH]c(=O)c3ccccc23)ccc1F)N1CCN(C(=O)C2CC2)CC1 [Olaparib] (partner 8 µM)
- relative viability ([1]; first compound 5 µM): 0.849
- relative viability ([1]; first compound 15.81 µM): 0.788
- relative viability ([1]; first compound 50 µM): 0.776
- relative viability ([1]; first compound 158.11 µM): 0.594
- relative viability ([1]; first compound 500 µM): 0.633
- relative viability ([2]; first compound 5 µM): 0.775
- relative viability ([2]; first compound 15.81 µM): 0.7
- relative viability ([2]; first compound 50 µM): 0.711
- relative viability ([2]; first compound 158.11 µM): 0.229
- relative viability ([2]; first compound 500 µM): 0.177
- relative viability ([3]; first compound 5 µM): 1.09
- relative viability ([3]; first compound 15.81 µM): 0.853
- relative viability ([3]; first compound 50 µM): 0.909
- relative viability ([3]; first compound 158.11 µM): 0.786
- relative viability ([3]; first compound 500 µM): 0.931
- relative viability ([4]; first compound 5 µM): 0.369
- relative viability ([4]; first compound 15.81 µM): 0.299
- relative viability ([4]; first compound 50 µM): 0.389
- relative viability ([4]; first compound 158.11 µM): 0.175
- relative viability ([4]; first compound 500 µM): 0.0294
- relative viability ([5]; first compound 5 µM): 0.756
- relative viability ([5]; first compound 15.81 µM): 0.862
- relative viability ([5]; first compound 50 µM): 0.856
- relative viability ([5]; first compound 500 µM): 0.802
- relative viability ([6]; first compound 5 µM): 0.508
- relative viability ([6]; first compound 15.81 µM): 0.432
- relative viability ([6]; first compound 50 µM): 0.484
- relative viability ([6]; first compound 158.11 µM): 0.199
- relative viability ([6]; first compound 500 µM): 0.229
- relative viability ([7]; first compound 5 µM): 0.812
- relative viability ([7]; first compound 15.81 µM): 0.683
- relative viability ([7]; first compound 50 µM): 0.653
- relative viability ([7]; first compound 158.11 µM): 0.198
- relative viability ([7]; first compound 500 µM): 0.083
- relative viability ([8]; first compound 5 µM): 0.97
- relative viability ([8]; first compound 15.81 µM): 0.95
- relative viability ([8]; first compound 50 µM): 0.925
- relative viability ([8]; first compound 158.11 µM): 0.629
- relative viability ([8]; first compound 500 µM): 0.469
- relative viability ([9]; first compound 5 µM): 0.558
- relative viability ([9]; first compound 15.81 µM): 0.602
- relative viability ([9]; first compound 50 µM): 0.691
- relative viability ([9]; first compound 158.11 µM): 0.691
- relative viability ([9]; first compound 500 µM): 0.538
- relative viability ([10]; first compound 5 µM): 0.755
- relative viability ([10]; first compound 15.81 µM): 0.669
- relative viability ([10]; first compound 50 µM): 0.733
- relative viability ([10]; first compound 158.11 µM): 0.55
- relative viability ([10]; first compound 500 µM): 0.717
- relative viability ([11]; first compound 5 µM): 0.714
- relative viability ([11]; first compound 15.81 µM): 0.702
- relative viability ([11]; first compound 50 µM): 0.749
- relative viability ([11]; first compound 158.11 µM): 0.796
- relative viability ([11]; first compound 500 µM): 0.736
- relative viability ([12]; first compound 5 µM): 0.988
- relative viability ([12]; first compound 15.81 µM): 1
- relative viability ([12]; first compound 50 µM): 1
- relative viability ([12]; first compound 158.11 µM): 0.692
- relative viability ([12]; first compound 500 µM): 0.8
- relative viability ([13]; first compound 5 µM): 0.728
- relative viability ([13]; first compound 15.81 µM): 0.791
- relative viability ([13]; first compound 50 µM): 0.749
- relative viability ([13]; first compound 158.11 µM): 0.416
- relative viability ([13]; first compound 500 µM): 0.0224
- relative viability ([14]; first compound 5 µM): 0.189
- relative viability ([14]; first compound 15.81 µM): 0.192
- relative viability ([14]; first compound 50 µM): 0.189
- relative viability ([14]; first compound 158.11 µM): 0.198
- relative viability ([14]; first compound 500 µM): 0.175
- relative viability ([15]; first compound 5 µM): 0.75
- relative viability ([15]; first compound 15.81 µM): 0.789
- relative viability ([15]; first compound 50 µM): 0.856
- relative viability ([15]; first compound 158.11 µM): 0.146
- relative viability ([15]; first compound 500 µM): 0.0648
- relative viability ([16]; first compound 5 µM): 0.25
- relative viability ([16]; first compound 15.81 µM): 0.258
- relative viability ([16]; first compound 50 µM): 0.265
- relative viability ([16]; first compound 158.11 µM): 0.124
- relative viability ([16]; first compound 500 µM): 0.0608
- relative viability ([17]; first compound 5 µM): 0.517
- relative viability ([17]; first compound 15.81 µM): 0.522
- relative viability ([17]; first compound 50 µM): 0.627
- relative viability ([17]; first compound 158.11 µM): 0.0403
- relative viability ([17]; first compound 500 µM): 0.0077
- relative viability ([18]; first compound 5 µM): 0.904
- relative viability ([18]; first compound 15.81 µM): 1.07
- relative viability ([18]; first compound 50 µM): 0.845
- relative viability ([18]; first compound 158.11 µM): 0.757
- relative viability ([18]; first compound 500 µM): 0.128
- relative viability ([19]; first compound 5 µM): 0.535
- relative viability ([19]; first compound 15.81 µM): 0.505
- relative viability ([19]; first compound 50 µM): 0.562
- relative viability ([19]; first compound 158.11 µM): 0.495
- relative viability ([19]; first compound 500 µM): 0.349
- relative viability ([20]; first compound 5 µM): 0.532
- relative viability ([20]; first compound 15.81 µM): 0.518
- relative viability ([20]; first compound 50 µM): 0.572
- relative viability ([20]; first compound 158.11 µM): 0.126
- relative viability ([20]; first compound 500 µM): 0.112
- relative viability ([21]; first compound 5 µM): 0.37
- relative viability ([21]; first compound 15.81 µM): 0.321
- relative viability ([21]; first compound 50 µM): 0.373
- relative viability ([21]; first compound 158.11 µM): 0.274
- relative viability ([21]; first compound 500 µM): 0.361
- relative viability ([22]; first compound 5 µM): 0.723
- relative viability ([22]; first compound 15.81 µM): 0.723
- relative viability ([22]; first compound 50 µM): 0.633
- relative viability ([22]; first compound 158.11 µM): 0.323
- relative viability ([22]; first compound 500 µM): 0.0561
- relative viability ([23]; first compound 5 µM): 0.442
- relative viability ([23]; first compound 15.81 µM): 0.395
- relative viability ([23]; first compound 50 µM): 0.406
- relative viability ([23]; first compound 158.11 µM): 0.135
- relative viability ([23]; first compound 500 µM): 0.071
